Results reported in the supplement of paper PMC11061612.

How the values were obtained:
Test in all cases: combination Emax (second highest fraction inhibited in the dose matrix, 72 h); higher = more inhibition; extreme values may be limits of the assay
[1] = system: MOLT-4 (T-Lymphoblastic Leukemia)
Procedure, shortened: (§1)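 Cell lines grown in DMEM/F12 or RPMI with 10% FBS were plated in 1536-well plates and held 24 hours at 37°C, 5% CO2 before 72 hours of exposure to two-drug dose matrices, with DMSO typically at 0.2%. CellTiter-Glo 2.0 luminescence gave viability, which was converted to inhibition. Vehicle wells were set to 0 and blank wells to 1. Combination Emax is the second-highest inhibition in the matrix, and Bliss excess is the observed combination effect minus the expected EA + EB − EA·EB, where EA and EB are the single-agent effects.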

[2] = system: NCI-H1092 (Small Cell Lung Carcinoma)
Procedure, shortened: as §1

[3] = system: ML-2 (Acute Myeloid Leukemia)
Procedure, shortened: as §1

[4] = system: OE33 (Esophageal Adenocarcinoma)
Procedure, shortened: as §1

Hey (Ovarian Carcinoma) = system: Hey (Ovarian Carcinoma)
Procedure, shortened: as §1

[5] = system: EJM (Plasma Cell Myeloma)
Procedure, shortened: as §1

[6] = system: KGN (Other Solid Carcinomas)
Procedure, shortened: as §1

[7] = system: HCC1500 (Breast Carcinoma)
Procedure, shortened: as §1

[8] = system: NCI-H522 (Lung Adenocarcinoma)
Procedure, shortened: as §1

[9] = system: Ca-Ski (Cervical Carcinoma)
Procedure, shortened: as §1

[10] = system: KOPN-8 (B-Lymphoblastic Leukemia)
Procedure, shortened: as §1

[11] = system: MDA-MB-453 (Breast Carcinoma)
Procedure, shortened: as §1

[12] = system: A4-Fuk (B-Lymphoblastic Leukemia)
Procedure, shortened: as §1

[13] = system: OACM5-1 (Esophageal Adenocarcinoma)
Procedure, shortened: as §1

[14] = system: MV-4-11 (Acute Myeloid Leukemia)
Procedure, shortened: as §1

[15] = system: NCI-H1993 (Lung Adenocarcinoma)
Procedure, shortened: as §1

[16] = system: ALL-SIL (T-Lymphoblastic Leukemia)
Procedure, shortened: as §1

COLO-679 (Melanoma) = system: COLO-679 (Melanoma)
Procedure, shortened: as §1

[17] = system: ME-180 (Cervical Carcinoma)
Procedure, shortened: as §1

CCc1c2c(nc3ccc(O)cc13)-c1cc3c(c(=O)n1C2)COC(=O)[C@]3(O)CC [SN-38] + CN(C)CCCOc1ccc(-c2ccc3ncc4c(c3c2)n(C2CCOCC2)c(=O)n4C)cn1 [AZD0156] (first compound max 0.3 µM, 7x7, partner max 1 µM)
combination Emax [1]: 1
combination Emax [2]: 0.323
combination Emax [3]: 1
combination Emax [4]: 0.642
combination Emax (Hey (Ovarian Carcinoma)): 0.732
combination Emax [5]: 0.903
combination Emax [6]: 0.937
combination Emax [7]: 0.708
combination Emax [8]: 0.43
combination Emax [9]: 0.99
combination Emax [10]: 0.957
combination Emax [11]: 0.772
combination Emax [12]: 0.923
combination Emax [13]: 0.763
combination Emax [14]: 1
combination Emax [15]: 0.696
combination Emax [16]: 0.995
combination Emax (COLO-679 (Melanoma)): 0.659
combination Emax [17]: 0.892

CC1(C)CCC(CN2CCN(c3ccc(C(=O)NS(=O)(=O)c4ccc(NCC5CCOCC5)c([N+](=O)[O-])c4)c(Oc4cnc5[nH]ccc5c4)c3)CC2)=C(c2ccc(Cl)cc2)C1 [Venetoclax] + CCN(CCO)CCCOc1ccc2c(Nc3cc(CC(=O)Nc4cccc(F)c4)[nH]n3)ncnc2c1 [AZD2811] (first compound max 1 µM, 7x7, partner max 1 µM)
combination Emax [1]: 1
combination Emax [2]: 0.39
combination Emax [3]: 0.998
combination Emax [4]: 0.174
combination Emax (Hey (Ovarian Carcinoma)): 0.266
combination Emax [5]: 0.261
combination Emax [6]: 0.509
combination Emax [7]: 0.855
combination Emax [8]: 0.217
combination Emax [9]: 0.346
combination Emax [10]: 0.974
combination Emax [11]: 0.211
combination Emax [12]: 0.748
combination Emax [13]: 0.421
combination Emax [14]: 1
combination Emax [15]: 0.232
combination Emax [16]: 1
combination Emax (COLO-679 (Melanoma)): 0.133
combination Emax [17]: 0.243

COc1cccc2c1C(=O)c1c(O)c3c(c(O)c1C2=O)C[C@@](O)(C(=O)CO)C[C@@H]3O[C@H]1C[C@H](N)[C@H](O)[C@H](C)O1 [Doxorubicin] + Cc1cc2ncnn2cc1Nc1ncc2c(n1)n(C1CCOCC1)c(=O)n2C [AZD7648] (first compound max 1 µM, 7x7, partner max 10 µM)
combination Emax [1]: 1
combination Emax [2]: 0.479
combination Emax [3]: 0.913
combination Emax [4]: 0.526
combination Emax (Hey (Ovarian Carcinoma)): 0.906
combination Emax [5]: 0.903
combination Emax [6]: 0.901
combination Emax [7]: 0.887
combination Emax [8]: 0.697
combination Emax [9]: 0.913
combination Emax [10]: 0.916
combination Emax [11]: 0.639
combination Emax [12]: 0.877
combination Emax [13]: 0.834
combination Emax [14]: 1
combination Emax [15]: 0.968
combination Emax [16]: 0.983
combination Emax (COLO-679 (Melanoma)): 0.959
combination Emax [17]: 0.958

CCc1c2c(nc3ccc(O)cc13)-c1cc3c(c(=O)n1C2)COC(=O)[C@]3(O)CC [SN-38] + O=C(c1cc(Cc2n[nH]c(=O)c3ccccc23)ccc1F)N1CCN(C(=O)C2CC2)CC1 [Olaparib] (first compound max 0.3 µM, 7x7, partner max 10 µM)
combination Emax [1]: 1
combination Emax [2]: 0.54
combination Emax [3]: 1
combination Emax [4]: 0.587
combination Emax (Hey (Ovarian Carcinoma)): 0.72
combination Emax [5]: 0.944
combination Emax [6]: 0.918
combination Emax [7]: 0.873
combination Emax [8]: 0.389
combination Emax [9]: 0.997
combination Emax [10]: 0.965
combination Emax [11]: 0.746
combination Emax [12]: 0.96
combination Emax [13]: 0.796
combination Emax [14]: 1
combination Emax [15]: 0.635
combination Emax [16]: 1
combination Emax (COLO-679 (Melanoma)): 0.743
combination Emax [17]: 0.914

COc1cccc(OCCCN)c1-c1cc(Nc2cnc(C#N)cn2)n[nH]1 [Prexasertib] + CCc1c2c(nc3ccc(O)cc13)-c1cc3c(c(=O)n1C2)COC(=O)[C@]3(O)CC [SN-38] (first compound max 1 µM, 7x7, partner max 0.3 µM)
combination Emax [1]: 1
combination Emax [2]: 0.899
combination Emax [3]: 1
combination Emax [4]: 0.811
combination Emax (Hey (Ovarian Carcinoma)): 0.843
combination Emax [5]: 0.952
combination Emax [6]: 0.89
combination Emax [7]: 0.934
combination Emax [8]: 0.8
combination Emax [9]: 0.983
combination Emax [10]: 1
combination Emax [11]: 0.929
combination Emax [12]: 0.972
combination Emax [13]: 0.854
combination Emax [14]: 1
combination Emax [15]: 0.938
combination Emax [16]: 1
combination Emax (COLO-679 (Melanoma)): 0.826
combination Emax [17]: 0.948

CC1(C)CCC(CN2CCN(c3ccc(C(=O)NS(=O)(=O)c4ccc(NCC5CCOCC5)c([N+](=O)[O-])c4)c(Oc4cnc5[nH]ccc5c4)c3)CC2)=C(c2ccc(Cl)cc2)C1 [Venetoclax] + C=CCn1c(=O)c2cnc(Nc3ccc(N4CCN(C)CC4)cc3)nc2n1-c1cccc(C(C)(C)O)n1 [AZD1775] (first compound max 1 µM, partner max 1 µM)
combination Emax [1]: 1
combination Emax [2]: 0.696
combination Emax [3]: 1
combination Emax [4]: 0.623
combination Emax (Hey (Ovarian Carcinoma)): 0.667
combination Emax [5]: 0.928
combination Emax [6]: 0.68
combination Emax [7]: 0.781
combination Emax [8]: 0.289
combination Emax [9]: 0.836
combination Emax [10]: 1
combination Emax [11]: 0.769
combination Emax [12]: 0.883
combination Emax [13]: 0.558
combination Emax [14]: 1
combination Emax [15]: 0.629
combination Emax [16]: 1
combination Emax (COLO-679 (Melanoma)): 0.413
combination Emax [17]: 0.599
